From article PMC5248581 (PeerJ, 2017)

Experiments:
[1] = system: MRGPRX2 (human sequence); conditions: ref McNeil et al., 2015; cited from earlier work
Text: MRGPRX2 has been recently described as a promiscuous receptor for cationic polymers and drugs that produce direct mast cell degranulation ([McNeil et al., 2015]). […] The contractile effect of MK on the human umbilical vein and ...

[2] = system: male Sprague-Dawley rats; test: Acute hindquarter hemodynamic effects in anesthetized rats; assay type: in vivo, rat; conditions: icatibant 25 µg/kg i.v., 15 min before
Method: Before each experiment, a 30-min stabilization period was allowed, during which continuous recording of heart rate, phasic and mean blood pressure and phasic and mean Doppler shift signals from the hindquarter probe were made in anesthetized rats, using the Biopac data acquisition and analysis system previously described ([Jean et al., 2016a]). Then, a first group of rats (n = 8) received successive i.v. injections of peptide vehicle (saline-BSA 0.1%), BK (6.4 µg/kg), and MK (1.6 µg/kg). […] Further experiments were made in a second group of rats (n = 6) pretreated with the B2R antagonist, icatibant. […] At the end of the experiments the rats were euthanized with an overdose of anesthetic (pentobarbital 240 mg/kg, i.v.).
Results are presented as means ± s.e.m.

[3] = molecular target: T1, human isolated umbilical vein (BK B2R; histamine H1R) (Homo sapiens, UniProt P30411); conditions: antagonist 1 µM, 30 min before MK
T1 sequence (P30411 1-391): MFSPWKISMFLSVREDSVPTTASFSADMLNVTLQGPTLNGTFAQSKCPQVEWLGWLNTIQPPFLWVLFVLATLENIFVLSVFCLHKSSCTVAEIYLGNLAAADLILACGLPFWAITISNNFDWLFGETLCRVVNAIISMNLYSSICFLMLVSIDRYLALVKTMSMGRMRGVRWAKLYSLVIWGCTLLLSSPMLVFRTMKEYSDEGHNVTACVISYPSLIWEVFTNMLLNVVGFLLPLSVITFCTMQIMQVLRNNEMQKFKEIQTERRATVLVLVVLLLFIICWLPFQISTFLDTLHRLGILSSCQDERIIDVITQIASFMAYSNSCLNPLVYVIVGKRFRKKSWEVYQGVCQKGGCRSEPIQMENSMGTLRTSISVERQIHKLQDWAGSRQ
Text: The institutional research ethics board (CHU de Québec) approved the anonymous use of human umbilical cord segments obtained after elective cesarean section deliveries (file number: 2012-323). Informed written consent was obtained from mothers.
(§1) Results are presented as means ± s.e.m. Radioligand binding data were fitted by nonlinear regression to a one-site competition equation using a least-square method (Prism 5.0; GraphPad Software Inc., San Diego, CA, USA) and IC50 values calculated from this procedure. The same computer program was used to draw concentration-effect curves (least square fitting of sigmoidal dose–response equation with variable slope) and to derive contractile EC50 values. Data describing baseline values of heart rate and mean arterial blood pressure and hypotensive responses to peptides in anesthetized rats were assessed by using one-way analysis of variance (ANOVA) followed by the Dunnett’s test (repeated comparison with a common control). The effects of drugs on the hypotensive responses to each dose of MK were assessed by using ANOVA followed by the Dunnett’s test.

[4] = system: male Sprague-Dawley rats
Method: All surgical and experimental procedures were reviewed and approved by the Animal Care and Handling Committee of Laval University, in accordance with the Canadian Council on Animal Care (file no. 2012-223). Experiments were performed on male Sprague-Dawley rats (300–375 g) purchased from Charles River Laboratories (St-Constant, Qc, Canada). Only animals of the male gender have been studied to be consistent with related and recently published data ([Jean et al., 2016a]). The rats were housed in a temperature-controlled room (22 ± 1 °C) on a 12 h/12 h light-dark cycle (lights on at 0600) and had free access to normal chow diet and tap water. They were allowed to acclimate to their environmental conditions for one week prior to being studied. At the end of the acclimation period, the rats were anesthetised with sodium pentobarbital (50 mg kg^−1, i.p., supplemented as required) and had one catheter implanted into the right jugular vein (for intravenous ( i.v.) injection) and one into the left femoral artery (for direct and continuous measurement of blood pressure and heart rate as previously described, [Jean et al., 2016a]). In some experiments, a miniaturized pulsed Doppler flow probe ([Haywood et al., 1981]) was implanted around the distal abdominal aorta (below the level of the ileocaecal artery) through a midline abdominal incision to monitor changes in hindquarter hemodynamic, according to the method previously developed by [Gardiner & Bennett (1988)] and as previously described ([Bachelard et al., 1992]; [Jean et al., 2016a]). Experiments started at least 30 min following the end of surgery in anesthetised rats.
Baseline heart rate and phasic and mean arterial blood pressure were recorded over a period of 15 min in anesthetized rats. […] Peptides were dissolved in isotonic saline (0.9% NaCl) containing 0.1% BSA to prevent the adsorption of peptide to the glassware and plastic surfaces. All i.v. injections were given as 100 µl boluses which were washed in with a further 100 µl of saline (the dead space of the catheter). Only one peptide was tested per group of rats and each injection started with saline-BSA 0.1% followed by the lowest dose of peptide. The next dose was administered once all recorded cardiovascular parameters had returned to baseline after the previous injection (usually 2–10 min). At the end of the experiments each animal was euthanized with an overdose of sodium pentobarbital (240 mg/kg, i.v.).
In these experiments, enalaprilat was intravenously administered as bolus (0.1 mg/kg, 0.1 ml) following a 10 min period of baseline measurements of heart rate and blood pressure. Fifteen minutes later, a dose–response curve to MK was obtained, as described above. […] In these experiments, icatibant was intravenously administered as bolus (25 µg/kg, 0.1 ml) 15 min before the i.v. injection of increasing doses of MK, as above. […] In these experiments, pyrilamine was intravenously administered as bolus (5 mg/kg, 0.1 ml) 15 min before the i.v. injection of increasing doses of MK, as above.
as §1, with “control).” for “control). The effects of drugs on the hypotensive responses to each dose of MK were assessed by using ANOVA followed by the Dunnett’s test.”

Substance: D-Arg-[Hyp^3, Thi^5, D-Tic^7, Oic^8] bradykinin [icatibant]
- MRGPRX2-activating concentration over B2R-antagonizing concentration [1]: 5 to 6 orders of magnitude
- effect of icatibant on cardiovascular responses to BK and MK [2]: all significantly abated
- effect of icatibant on cardiovascular responses to BK and MK ([2]; listed as Icatibant): significantly abated all types of responses to the 2 kinins
- effect of receptor antagonist on MK-induced contraction [3]: profound inhibitory effect
- Basal mean arterial blood pressure after pre-treatment ([4]; 15 min after i.v., enalaprilat 0.1 mg/kg n=6, icatibant 25 µg/kg n=6, pyrilamine 5 mg/kg n=16, means ± s.e.m., control 96.5 ± 2.5): 90.3 ± 4.6
- Basal heart rate after pre-treatment ([4]; 15 min after i.v., enalaprilat 0.1 mg/kg n=6, icatibant 25 µg/kg n=6, pyrilamine 5 mg/kg n=16, means ± s.e.m., control 351 ± 10, * P < 0.01 vs control): 362 ± 28
- effect of pretreatment on hypotensive effect of MK ([4]; enalaprilat 0.1 mg/kg, icatibant 25 µg/kg, pyrilamine 5 mg/kg i.v., 15 min before MK): abated
